Results taken from EP0061745A1, “Tetrahydroisoquinoline compounds, processes for preparation thereof and pharmaceutical composition containing them” (Tanabe Seiyaku Co., Ltd., priority 1981, dated 1982).

What was measured:
[1] = system: spontaneously hypertensive rats (SHR); experiment: Blood-pressure lowering effect after oral administration to SHR; format: in vivo; settings: administered orally, dose of 50 mg/kg
[2] = system: production of PG 12 in vascular tissues; experiment: Effect on production of PG I2 in vascular tissues (platelet lysate or aorta microsome); format: biochemical; settings: pig's blood platelet lysate or microsome obtained from pig's aorta
SHR = experiment: Hypotensive activity after repeated administration (tolerance); format: in vivo, rats; settings: administered to SHR for 15 consecutive days

SMILES | decrease in the blood pressure [1] | duration of blood-pressure lowering effect [1] | increase in the formation of PG I2 as compared with a control group [2] | potency of hypotensive activity during repeated administration (SHR)
CCOC(=O)[C@H](CCc1ccccc1)CN(CC)C(=O)N1Cc2ccccc2C[C@H]1C(=O)O [(3S)-2-[N-((2R)-2-ethoxycarbonyl-4-phenyl-n-butyl)-N-ethylcarbamoyl]-1,2,3,4-tetrahydroisoquinoline-3-carboxylic acid] | about 35 mmHg | more than 6 hours | – | –
CCCCCCCCCC[C@H](CN(CC)C(=O)N1Cc2ccccc2C[C@H]1C(=O)O)C(=O)O [(3S)-2-[N-((2R)-2-carboxy-n-dodecyl)-N-ethylcarbamoyl]-1,2,3,4-tetrahydroisoquinoline-3-carboxylic acid] | – | – | 62% | –
CCCCCCCC[C@H](CN(CC)C(=O)N1Cc2ccccc2C[C@H]1C(=O)O)C(=O)OCC [calcium (3S)-2-[N-((2R)-2-ethoxycarbonyl-n-decyl)-N-ethylcarbamoyl] - 1,2,3,4-tetrahydro-isoquinoline-3-carboxylate] | about 35 mmHg | more than 6 hours | – | almost the same potency of its hypotensive activity
